Key:
[1] = test system: NQO1 specific enzyme activity in BEAS-2B cells (marker for NRF2 activation); assay: Beas2B NQO1 MTT Assay; assay type: cell-based; conditions: Homo sapiens, NQO1 specific activity induction, 48 hours with compound
Text: NAD(P)H:quinone oxidoreductase 1 (NQO1), also called DT diaphorase, is a homodimeric FAD-containing enzyme that catalyses obligatory NAD(P)H-dependent two-electron reductions of quinones and protects cells against the toxic and neoplastic effects of free radicals and reactive oxygen species arising from one-electron reductions. The transcription of NQO1 is finely regulated by NRF2, and thus NQO1 activity is a good marker for NRF2 activation. On day one, frozen BEAS-2B cells (ATCC) were thawed in a water bath, counted, and re-suspended at a concentration of 250,000 cells/mL. Fifty microliters of cells were plated in 384 well black clear-bottomed plates. Plates were incubated at 37° C., 5% CO2 overnight. On day two, plates were centrifuged and 50 nL of compound or controls were added to the cells. Plates were then incubated at 37° C., 5% CO2 for 48 hours. On day four, medium was aspirated from the plate and crude cell lysates were made by adding 13 uL of 1× Cell Signaling Technologies lysis buffer with 1 Complete, Mini, EDTA-free Protease Inhibitor Tablet (Roche) for each 10 mL of lysis buffer. After lysis plates were incubated for 20 minutes at room temperature. Two microliters of lysate were removed for use in Cell Titer Glo assay (Promega) and MTT cocktail was prepared (Prochaska et. al. 1998) for measurement of NQO1 activity. Fifty microliters of MTT cocktail was added to each well, plate was centrifuged, and analysed on an Envision plate reader (Perkin Elmer) using Absorbance 570 nm label for 30 minutes. Product formation was measured kinetically and the pEC50 of NQO1 specific activity induction was calculated by plotting the change in absorbance (Delta OD/min) versus the log of compound concentration followed by 3-parameter fitting.
EC50s <1 nM (+++++), EC50s 10 nM-1 nM (++++), EC50s 10-100 nM (+++), EC50s 100 nM-1 μM (++), EC50s 1-10 μM (+), EC50s >10 μM (−), or were not determined (ND).

[2] = molecular target: T1, Keap1 (321-609) Kelch domain / TAMRA-labeled 16mer NRF2 peptide (ETGE motif) (Homo sapiens, UniProt Q14145); assay: NRF2-Keap1 FP Assay; assay type: binding; conditions: 20 nM Keap1 (321-609), 8 nM Tamra labeled peptide
T1 construct: the Kelch domain (321-609) of Keap1 is used
T1 sequence (Q14145 321-609): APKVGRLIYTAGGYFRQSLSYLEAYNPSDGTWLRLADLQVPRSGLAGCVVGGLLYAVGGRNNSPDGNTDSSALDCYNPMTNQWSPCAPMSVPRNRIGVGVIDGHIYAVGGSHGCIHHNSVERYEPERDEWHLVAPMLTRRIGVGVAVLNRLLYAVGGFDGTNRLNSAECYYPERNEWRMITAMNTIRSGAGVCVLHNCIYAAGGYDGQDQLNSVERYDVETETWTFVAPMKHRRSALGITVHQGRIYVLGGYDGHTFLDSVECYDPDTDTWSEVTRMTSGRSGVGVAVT
Text: One model for the NRF2-Keap1 interaction is through two binding sites in the Neh2 domain on NRF2. The two sites are referred to as the DLG binding motif (latch domain, uM affinity) and the ETGE binding motif (hinge domain, nM affinity). The Keap1 protein consists of an N-terminal region (NTR), a broad complex, tramtrack, and brick a'brac domain (BTB), an intervening region (IVR), a double glycine repeat domain (DGR or Kelch), and a C-terminal region. The DLG and ETGE motifs of NRF2's Neh2 domain bind to the Kelch domain of Keap1 at different affinities. In the Keap1 Kelch fluorescence polarization (FP) assay, a TAMRA-labeled 16mer peptide (AFFAQLQLDEETGEFL) containing the ETGE motif of NRF2 and the Kelch domain (321-609) of Keap1 is used. The assay determines if a compound interferes with the binding between Keap1 […] and the TAMRA-labeled peptide. Binding of TAMRA-labeled NRF2 peptide to Keap1 (321-609) results in a high FP signal. If a compound interferes with the binding between the peptide and the protein, it will cause the assay signal to decrease. Thus, assay signal is inversely proportional to binding inhibition.
100 nl of 100× compound dose response curves (serial 3-fold dilutions) in DMSO were stamped using an Echo liquid handling system (Labcyte) into 384-well low volume black assay plates (Greiner, #784076), with DMSO in columns 6 and 18. The top concentration of compound was located in columns 1 and 13. Keap1 (321-609) was diluted to 40 nM (2×) in 1× assay buffer (50 mM Tris, pH 8.0, 100 mM NaCl, 5 mM MgCl2, 1 mM DTT, 2 mM CHAPS, and 0.005% BSA) and 5 ul was added using a Multidrop Combi (Thermo Electron Corporation) equipped with a metal tip dispenser to all wells of the compound plate, except column 18. Column 18 received only 5 ul of assay buffer. Immediately, 5 uL of 16 nM (2×) of Tamra labeled peptide (AFFAQLQLDEETGEFL, 21st Century Biochemicals) was added to all wells of the plate. The plates were spun at 500 rpm for 1 min, incubated for 1 hr at room temperature, and read on an Analyst GT (Molecular Devices) equipped with excitation (530/25 nm) and emission (580/10 nm) filters designed for Tamra probes. A 561 nm dichroic mirror was also used in the Analyst. The final assay concentrations of Keap1 (321-609) and Tamra labeled peptide were 20 nM and 8 nM, respectively. Fluorescence measurements, represented as mP, were used in the transformation of the data. Compound activity was calculated based on percent inhibition, normalized against controls in the assay (Control 1 contains the Tamra peptide and Keap1 (321-609) together (0% response) and control 2 contains the Tamra peptide alone (100% response)). Data analysis was handled using the software package Abase XE (Surrey, United Kingdom. The % inhibition values were calculated by the equation:
100−(100*((compound response−average control 2)/(average control 1−average control2))). For calculation of pIC50s, Abase XE uses a four parameter equation.
IC50s<1 nM (+++++), IC50s 1 nM-10 nM (++++), IC50s 10-100 nM (+++), IC50s 100 nM-1 μM (++), IC50s 1-10 μM (+), IC50s >10 μM (−), or were not determined (ND).

**Q.** `C[C@H]1Cc2ccc(C(F)(F)F)cc2S(=O)(=O)N(C2CCc3c2cccc3-n2ccc(C(=O)O)c2C2CC2)C1` (mixture of isomers) [Example 12, 2-Cyclopropyl-1-(1-((S)-4-methyl-1,1-dioxido-8-(trifluoromethyl)-4,5-dihydrobenzo[f][1,2]thiazepin-2(3H)-yl)-2,3-dihydro-1H-inden-4-yl)-1H-pyrrole-3-carboxylic acid] was tested. Which EC50 [1] did it give?
**A.** Its EC50 is 100 to 1000 nM.

**Q.** And the EC50 [2]?
**A.** The EC50 was 1000 to 10000 nM.

**Q.** Which EC50 [1] does the source give for `C[C@H]1Cc2ccc(C(F)(F)F)cc2S(=O)(=O)N(Cc2cccc(-n3ccc(C(=O)O)c3[C@@H]3C[C@H]3c3cn(C)nn3)c2)C1` (racemic) [Example 1, 1-(3-(((S)-4-Methyl-1,1-dioxido-8-(trifluoromethyl)-4,5-dihydrobenzo[f]-[1,2]thiazepin-2(3H)-yl)methyl)phenyl)-2-(trans-2-(1-methyl-1H-1,2,3-triazol-4-yl)cyclopropyl)-1H-pyrrole-3-carboxylic acid] here?
**A.** Its EC50 is 10 to 100 nM.

**Q.** What about the EC50 [2] of the same compound?
**A.** Its EC50 is 10 to 100 nM.

**Q.** For `C[C@H]1Cc2cc(C(F)(F)F)ccc2S(=O)(=O)N(Cc2cccc(-n3ccc(C(=O)O)c3[C@@H]3C[C@H]3c3cn(C)nn3)c2)C1` (racemic) [Example 2, 1-(3-(((S)-4-methyl-1,1-dioxido-7-(trifluoromethyl)-4,5-dihydrobenzo[f][1,2]thiazepin-2(3H)-yl)methyl)phenyl)-2-(trans-2-(1-methyl-1H-1,2,3-triazol-4-yl)cyclopropyl)-1H-pyrrole-3-carboxylic acid], which EC50 [1] is on record?
**A.** The EC50 was 10 to 100 nM.

**Q.** What about the EC50 [2] of the same compound?
**A.** The EC50 was 10 to 100 nM.

**Q.** `Cc1c(CN2C[C@@H](C)Cc3ccc(C(F)(F)F)cc3S2(=O)=O)cccc1-n1ccc(C(=O)O)c1[C@@H]1C[C@H]1c1cn(C)nn1` (racemic) [Example 10, rac-2-(trans-2-(1-methyl-1H-1,2,3-triazol-4-yl)cyclopropyl)-1-(2-methyl-3-(((S)-4-methyl-1,1-dioxido-8-(trifluoromethyl)-4,5-dihydrobenzo[f][1,2]thiazepin-2(3H)-yl)methyl)phenyl)-1H-pyrrole-3-carboxylic acid] was tested. Which EC50 [1] did it give?
**A.** Its EC50 is 100 to 1000 nM.

**Q.** What about the EC50 [2] of the same compound?
**A.** The EC50 was 100 to 1000 nM.

**Q.** Which EC50 [1] does the source give for `Cc1ccc(CN2C[C@@H](C)Cc3ccc(C(F)(F)F)cc3S2(=O)=O)cc1-n1ccc(C(=O)O)c1[C@@H]1C[C@H]1c1cn(C)nn1` (racemic) [Example 11, rac-2-(trans-2-(1-methyl-1H-1,2,3-triazol-4-yl)cyclopropyl)-1-(2-methyl-5-(((S)-4-methyl-1,1-dioxido-8-(trifluoromethyl)-4,5-dihydrobenzo[f][1,2]thiazepin-2(3H)-yl)methyl)phenyl)-1H-pyrrole-3-carboxylic acid] here?
**A.** The EC50 was 100 to 1000 nM.

**Q.** What about the EC50 [2] of the same compound?
**A.** The EC50 was 100 to 1000 nM.

**Q.** What does the source list for `C[C@H](Oc1cccc(-c2cccc(-n3ccc(C(=O)O)c3[C@@H]3C[C@H]3c3cn(C)nn3)c2)c1)C1CCCCC1` (racemic) [Example 13, 1-(3′-((S)-1-Cyclohexylethoxy)-[1,1′-biphenyl]-3-yl)-2-(trans-2-(1-methyl-1H-1,2,3-triazol-4-yl)cyclopropyl)-1H-pyrrole-3-carboxylic acid]?
**A.** EC50 [1]: 10 to 100 nM; EC50 [2]: 10 to 100 nM

**Q.** Which EC50 [1] does the source give for `CCC[C@@H]1CCCCN1C(=O)c1cccc(-c2cccc(-n3ccc(C(=O)O)c3[C@@H]3C[C@H]3c3cn(C)nn3)c2)c1` (racemic) [Example 14, 2-(trans-2-(1-methyl-1H-1,2,3-triazol-4-yl)cyclopropyl)-1-(3′-((R)-2-propylpiperidine-1-carbonyl)-[1,1′-biphenyl]-3-yl)-1H-pyrrole-3-carboxylic acid] here?
**A.** The EC50 was 10 to 100 nM.

**Q.** What about the EC50 [2] of the same compound?
**A.** Its EC50 is 10 to 100 nM.

**Q.** What does the source list for `CCC[C@@H]1CCCCN1C(=O)c1cccc(-c2cccc(-n3ccc(C(=O)O)c3[C@@H]3C[C@H]3c3cn(C)nn3)c2)c1F` (racemic) [Example 15, 1-(2′-fluoro-3′-((R)-2-propylpiperidine-1-carbonyl)-[1,1′-biphenyl]-3-yl)-2-(trans-2-(1-methyl-1H-1,2,3-triazol-4-yl)cyclopropyl)-1H-pyrrole-3-carboxylic acid]?
**A.** EC50 [1]: 1 to 10 nM; EC50 [2]: 10 to 100 nM

**Q.** Which results are given for `Cn1cc([C@@H]2C[C@H]2c2c(C(=O)O)ccn2-c2cccc(CN3Cc4cc(F)ccc4OC(C)(C)C3)c2)nn1` (racemic) [Example 19]?
**A.** EC50 [1]: 100 to 1000 nM; EC50 [2]: 10 to 100 nM
